# Laboratory results published in patent US7935853B2, “Micronized composition of a 2,4-disubstituted phenol derivative” (priority 2008, dated 2011).
# Tests used:
# LTB4 synthesis = experiment: First phase I trial, plasma concentration vs LTB4 synthesis inhibition (EMAX); format: in vivo; details: Homo sapiens; healthy volunteers, single oral dose, EMAX type relationship; read-out: IC50 (level of drug in plasma eliciting half of maximal LTB4 synthesis inhibition)
# Source text: (§1) 2,4,6-triiodophenol is a potent leukotriene B4 (LTB4) synthesis inhibitor that is currently under clinical development. The exact mechanism of action of 2,4,6-triiodophenol is not completely understood but it is known that the inhibition of the enzyme 5-lipoxygenase is involved.
# [1] = First phase I clinical trial, single oral dose, safety and pharmacokinetics; format: in vivo, human; details: healthy volunteers
# Experimental: as §1
# A preliminary exploratory analysis was done by simulating the typical pharmacokinetic profiles after single and multiple 240, 350, and 500 mg dose regimens based on the pharmacokinetic model and model parameter estimates obtained from the first phase I study, where 2,4,6-triiodophenol was given to healthy volunteers in a single dose ranging from 6 to 1200 mg.
# [2] = tested on: arthritis induced by injection of type II collagen in the mouse; experiment: Model of arthritis induced by type II collagen in mice (CIA), hind paw plethysmometry; format: in vivo; details: for Total hind paw volume (sum of both hind paws) / Oedema (difference in paw volume from basal values on day 21) in both hind paws: group mean n=10
# Experimental: The aim of the study was to determine the anti-inflammatory activity of the test item in a model of arthritis induced by injection of type II collagen in the mouse (CIA) and to compare the activity of two different formulations: micronized and non-micronized.
# Induction of arthritis was carried out by an initial exposure to type II bovine collagen by a subcutaneous injection at the base of the tail (induction phase).
# After a recovery time of 21 days, animals received a booster injection and approximately 4-5 weeks after the first injection there was an immune response with arthritis appearing in the extremities in the majority of the cases.
# Four experimental groups were used in the study with 10 animals in each group:
# Group D: Positive control: FCA+vehicle B.I.D.
# Group E: Micronized Test Item (Micro) 10 mg/kg B.I.D.
# Group F: Non-Micronized test item 10 mg/kg B.I.D.
# Group G: Reference item: Indomethacin 1 mg/kg Q.D.
# The dose administered to groups E and F was 10 mg/kg.
# The dose administered to group G was 1 mg/kg.
# The doses of the test and reference items were expressed as mg/Kg of compound administered to each animal.
# The test and reference items were administered in a solution of methylcellulose (0.25%: vehicle).
# The positive control group received the vehicle (methylcellulose 0.25%).
# The test and reference items, as well as the vehicle were administered orally at a dosing volume of 5 mls/kg.
# The route of administration used was oral by use of an intragastric cannula.
# On the day of start of the study each mouse was injected subcutaneously at the base of the tail with a first dose of 0.1 ml of an emulsion of bovine type II collagen (1 mg/mL) in Freund's Complete Adjuvant. Afterwards, on day 21 after this first injection, a second booster injection of type II collagen was administered to all animals. In this occasion the collagen suspension was done using Incomplete Freund's Adjuvant.
# Coinciding with the second booster injection on day 21 treatment with the test or reference items was started to the corresponding animals.
# Treatment with the test or reference items was carried out for 31 consecutive days (days 21-51 of the experimental period). Additionally, a recovery period was included at the end of the treatment period from day 52 to day 65 in order to evaluate the duration of any anti-inflammatory effect observed once dosing has been terminated.
# The animals' hind paw volume was measured by plethysmometry one day before the 1st injection of collagen, again one day before the second (booster) collagen injection (basal values) and then daily after administration of test/reference item until the end of the study. During the recovery period at the end of the study, hind paw volume was measured three times per week.
# Additionally the data was also represented graphically, depicting changes in total hind paw volume, as well as oedema (differences from basal (day 21) values).
# [3] = day 22, oral treatment days 21-51
# [4] = day 23, oral treatment days 21-51
# [5] = day 26, oral treatment days 21-51
# [6] = day 27, oral treatment days 21-51
# [7] = day 29, oral treatment days 21-51
# [8] = day 30, oral treatment days 21-51
# [9] = day 33, oral treatment days 21-51
# [10] = day 34, oral treatment days 21-51
# [11] = day 35, oral treatment days 21-51
# [12] = day 36, oral treatment days 21-51
# [13] = day 37, oral treatment days 21-51
# [14] = day 40, oral treatment days 21-51
# [15] = day 41, oral treatment days 21-51
# [16] = day 42, oral treatment days 21-51
# [17] = day 43, oral treatment days 21-51
# [18] = day 44, oral treatment days 21-51
# [19] = day 47, oral treatment days 21-51
# [20] = day 48, oral treatment days 21-51
# [21] = day 49, oral treatment days 21-51
# [22] = day 50, oral treatment days 21-51
# [23] = day 51, oral treatment days 21-51
# [24] = day 54, recovery period after treatment days 21-51
# [25] = day 56, recovery period after treatment days 21-51
# [26] = day 58, recovery period after treatment days 21-51
# [27] = day 61, recovery period after treatment days 21-51
# [28] = day 63, recovery period after treatment days 21-51
# [29] = day 65, recovery period after treatment days 21-51
structure (smiles),measurement,setting,value
"Oc1c(I)cc(I)cc1I [2,4,6-triiodophenol]",IC50,LTB4 synthesis,16.6 µg/mL
same,safety and tolerability,[1]; single oral dose from 6 mg to 1200 mg,very good safety and tolerability profiles
same,pharmacokinetic behavior,"[1]; single oral dose, at least in the range from 240 to 700 mg",predictable and dose-independent
"COc1ccc2c(c1)c(CC(=O)O)c(C)n2C(=O)c1ccc(Cl)cc1 [Indomethacin, reference compound]",Total hind paw volume (sum of both hind paws),"[2]; day 0, before collagen and treatment",0.175
same,Total hind paw volume (sum of both hind paws),"[2]; day 20, basal, before treatment",0.227
same,Oedema (difference in paw volume from basal values on day 21) in both hind paws,[2]; [3],0.000
same,Total hind paw volume (sum of both hind paws),[2]; [3],0.227
same,Oedema (difference in paw volume from basal values on day 21) in both hind paws,[2]; [4],0.000
same,Total hind paw volume (sum of both hind paws),[2]; [4],0.227
same,Oedema (difference in paw volume from basal values on day 21) in both hind paws,[2]; [5],0.022
same,Total hind paw volume (sum of both hind paws),[2]; [5],0.249
same,Oedema (difference in paw volume from basal values on day 21) in both hind paws,[2]; [6],0.001
same,Total hind paw volume (sum of both hind paws),[2]; [6],0.228
same,Oedema (difference in paw volume from basal values on day 21) in both hind paws,[2]; [7],0.011
same,Total hind paw volume (sum of both hind paws),[2]; [7],0.237
same,Oedema (difference in paw volume from basal values on day 21) in both hind paws,[2]; [8],0.012
same,Total hind paw volume (sum of both hind paws),[2]; [8],0.239
same,Oedema (difference in paw volume from basal values on day 21) in both hind paws,[2]; [9],0.012
same,Total hind paw volume (sum of both hind paws),[2]; [9],0.238
same,Oedema (difference in paw volume from basal values on day 21) in both hind paws,[2]; [10],0.013
same,Total hind paw volume (sum of both hind paws),[2]; [10],0.240
same,Oedema (difference in paw volume from basal values on day 21) in both hind paws,[2]; [11],0.020
same,Total hind paw volume (sum of both hind paws),[2]; [11],0.246
same,Oedema (difference in paw volume from basal values on day 21) in both hind paws,[2]; [12],0.012
same,Total hind paw volume (sum of both hind paws),[2]; [12],0.239
same,Oedema (difference in paw volume from basal values on day 21) in both hind paws,[2]; [13],−0.005
same,Total hind paw volume (sum of both hind paws),[2]; [13],0.222
same,Oedema (difference in paw volume from basal values on day 21) in both hind paws,[2]; [14],0.028
same,Total hind paw volume (sum of both hind paws),[2]; [14],0.255
same,Oedema (difference in paw volume from basal values on day 21) in both hind paws,[2]; [15],0.031
same,Total hind paw volume (sum of both hind paws),[2]; [15],0.257
same,Oedema (difference in paw volume from basal values on day 21) in both hind paws,[2]; [16],0.021
same,Total hind paw volume (sum of both hind paws),[2]; [16],0.247
same,Oedema (difference in paw volume from basal values on day 21) in both hind paws,[2]; [17],0.023
same,Total hind paw volume (sum of both hind paws),[2]; [17],0.250
same,Oedema (difference in paw volume from basal values on day 21) in both hind paws,[2]; [18],0.011
same,Total hind paw volume (sum of both hind paws),[2]; [18],0.238
same,Oedema (difference in paw volume from basal values on day 21) in both hind paws,[2]; [19],0.028
same,Total hind paw volume (sum of both hind paws),[2]; [19],0.254
same,Oedema (difference in paw volume from basal values on day 21) in both hind paws,[2]; [20],0.025
same,Total hind paw volume (sum of both hind paws),[2]; [20],0.252
same,Oedema (difference in paw volume from basal values on day 21) in both hind paws,[2]; [21],0.030
same,Total hind paw volume (sum of both hind paws),[2]; [21],0.256
same,Oedema (difference in paw volume from basal values on day 21) in both hind paws,[2]; [22],0.030
same,Total hind paw volume (sum of both hind paws),[2]; [22],0.256
same,Oedema (difference in paw volume from basal values on day 21) in both hind paws,[2]; [23],0.021
same,Total hind paw volume (sum of both hind paws),[2]; [23],0.248
same,Oedema (difference in paw volume from basal values on day 21) in both hind paws,[2]; [24],0.040
same,Total hind paw volume (sum of both hind paws),[2]; [24],0.266
same,Oedema (difference in paw volume from basal values on day 21) in both hind paws,[2]; [25],0.052
same,Total hind paw volume (sum of both hind paws),[2]; [25],0.279
same,Oedema (difference in paw volume from basal values on day 21) in both hind paws,[2]; [26],0.058
same,Total hind paw volume (sum of both hind paws),[2]; [26],0.285
same,Oedema (difference in paw volume from basal values on day 21) in both hind paws,[2]; [27],0.058
same,Total hind paw volume (sum of both hind paws),[2]; [27],0.28
same,Oedema (difference in paw volume from basal values on day 21) in both hind paws,[2]; [28],0.064
same,Total hind paw volume (sum of both hind paws),[2]; [28],0.29
same,Oedema (difference in paw volume from basal values on day 21) in both hind paws,[2]; [29],0.076
same,Total hind paw volume (sum of both hind paws),[2]; [29],0.30
same,effect on hind paw oedema (in words),"[2]; test item 10 mg/kg BID, Indomethacin 1 mg/kg Q.D, oral",significant anti-inflammatory response
